Reference: patent US5691362A, “Substituted benzene-fused hetero- and carbocyclics as nuerokinin antagonists” (Schering-Plough Corporation, priority 1996, dated 1997)
Where two headings read alike, the source gives them in different places.

Columns and labels:
[1] = target: T1, human neurokinin 2 (NK2) receptor (Homo sapiens, UniProt P21452); assay: Neurokinin receptor binding assay, NK2 ([3H]-Neurokinin A); conditions: for inhibition at 1 µM: read-out: % Inhibition NK2 (1 μM dose)
T1 construct: expressed in transfected cells; host or cells: Chinese hamster ovary (CHO) cells, membranes
T1 sequence (P21452 1-398): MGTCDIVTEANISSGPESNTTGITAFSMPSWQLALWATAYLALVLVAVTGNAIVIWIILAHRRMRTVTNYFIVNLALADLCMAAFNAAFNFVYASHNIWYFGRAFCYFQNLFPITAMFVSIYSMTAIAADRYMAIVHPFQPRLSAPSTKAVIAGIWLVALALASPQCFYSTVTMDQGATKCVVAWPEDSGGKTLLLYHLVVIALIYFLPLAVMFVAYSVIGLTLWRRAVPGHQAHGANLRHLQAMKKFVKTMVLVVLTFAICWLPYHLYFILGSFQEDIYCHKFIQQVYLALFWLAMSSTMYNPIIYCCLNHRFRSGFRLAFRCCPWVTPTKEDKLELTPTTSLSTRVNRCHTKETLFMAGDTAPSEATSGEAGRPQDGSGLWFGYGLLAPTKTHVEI
Experimental: (§1) Chinese Hamster ovary (CHO) cells transfected with the coding regions for the human neurokinin 1 (NK1) of the human neurokinin 2 (NK2) receptors are grown in Dulbecco's minimal essential medium supplemented with 10% fetal calf serum, 0.1 mM non-essential amino acids, 2 mM glutamine, 100 units/ml of penicillin and streptomycin, and 0.8 mg of G418/ml at 37° C. in a humidified atmosphere containing 5% CO2.
(§2) Cells are detached from T-175 flasks with a sterile solution containing 5 mM EDTA in phosphate buffered saline. Cells are harvested by centrifugation and washed in RPMI media at […] for 5 minutes. The pellet is resuspended in Tris-HCl (pH7.4) containing 1 μM phsphoramidon and 4 ug/ml of chymostatin at a cell density of 30×10^6 cells/ml. The suspension is then homogenized in a Brinkman Polytron (setting 5) for 30-45 seconds. The homogenate is centrifuged at 800×g for 5 min at 4° C. to collect unbroken cells and nuclei. The supernatant is centrifuged in a Sorvall RC5C at 19,000 rpm ([…]) for 30 min at 4° C. The pellet is resuspended, an aliquot is removed for a protein determination (BCA) and washed again. The resulting pellet is stored at -80° C.
(§3) To assay receptor binding, 50 μl of [^3 H]-Substance P (9-Sar, 11-Met) (specific activity 41 Ci/mmol) (Dupont-NEN) (0.8 nM for the NK-1 assay) or [^3 H]-Neurokinin A (specific activity 114 Ci/mmole) (Zenca) (1.0 nM for the NK-2 assay) is added to tubes containing buffer (50 mM Tris-HCl (pH 7.4) with 1 mM MnCl2 and 0.2% Bovine Serum Albumin) and either DMSO or test compound. Binding is initiated by the addition of 100 μl of membrane (10-20 μg) containing the human NK-1 or NK-2 receptor in a final volume of 200 μl. After 40 minutes at room temperature, the reaction is stopped by rapid filtration onto Whatman GF/C filters which have been presoaked in 0.3% polyethyleneimine. Filters are washed 2 times with 3 ml of 50 mM Tris-HCl (pH7.4). Filters are added to 6 mls of Ready-Safe liquid scintillation cocktail and quantified by liquid scintillation spectrometry in a LKB 1219 RackBeta counter. Non-specific binding is determined by the addition of either 1 μM of CP-99994 (NK-1) or 1 μM SR-48968 (NK-2) (both synthesized by the chemistry department of Schering-Plough Research Institute). IC50 values are determined from competition binding curves and Ki values are determined according to Cheng and Prusoff using the experimentally determined value of 0.8 nM for the NK-1 receptor and 2.4 nM for the NK-2 receptor.
(§4) % Inhibition is the difference between the percent of maximum specific binding (MSB) and 100%. The percent of MSB is defined by the following equation, wherein "dpm" is disintegrations per minute: [formula]

[2] = target: T2, human neurokinin 1 (NK1) receptor (Homo sapiens, UniProt P25103); assay: Neurokinin receptor binding assay, NK1 ([3H]-Substance P); conditions: for inhibition at 1 µM: read-out: % Inhibition NK1 (1 μM dose)
T2 construct: expressed in transfected cells; host or cells: Chinese hamster ovary (CHO) cells, membranes
T2 sequence (P25103 whole entry): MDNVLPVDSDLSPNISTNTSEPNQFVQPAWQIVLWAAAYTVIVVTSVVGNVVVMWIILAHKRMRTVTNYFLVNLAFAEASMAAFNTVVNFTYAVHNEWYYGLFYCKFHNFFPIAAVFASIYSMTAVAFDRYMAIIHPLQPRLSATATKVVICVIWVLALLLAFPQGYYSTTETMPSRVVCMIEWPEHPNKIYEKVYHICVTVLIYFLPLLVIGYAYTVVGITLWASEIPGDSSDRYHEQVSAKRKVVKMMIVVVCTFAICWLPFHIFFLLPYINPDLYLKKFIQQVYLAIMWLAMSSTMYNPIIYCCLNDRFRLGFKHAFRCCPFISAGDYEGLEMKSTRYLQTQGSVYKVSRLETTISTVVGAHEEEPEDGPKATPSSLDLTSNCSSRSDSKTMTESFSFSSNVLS
Experimental: as §1, §2, §3, §4

[3] = CHO membranes, human NK-2 receptor, [3H]-Neurokinin A 1.0 nM, Cheng-Prusoff, read-out: Ki (NK2)
[4] = CHO membranes, human NK-1 receptor, [3H]-Substance P 0.8 nM, Cheng-Prusoff, read-out: Ki (NK1)

| Ki [1, 3] | Ki [2, 4] | Compound | Ki [1] | inhibition at 1 µM [1] | Ki [2] | inhibition at 1 µM [2] |
| --- | --- | --- | --- | --- | --- | --- |
|  |  | CN(CCc1c[nH]c2ccccc12)CCC1(c2ccc(Cl)c(Cl)c2)CCN(C(=O)c2cc(C(F)(F)F)cc(C(F)(F)F)c2)C1 (stereo not shown) [Example 14b] | 143 nM | 88% | 21 nM | 81% |
|  |  | COc1cc(C(=O)N(C)CC(CCN(C)CCc2c[nH]c3ccc(F)cc23)c2ccc(Cl)c(Cl)c2)cc(OC)c1OC (racemic) [Example 7c] |  | 100% |  |  |
| 30 nM | 233 nM | COc1cc(C(=O)N(C)CC(CCN[C@@H](Cc2c[nH]c3ccccc23)C(=O)O)c2ccc(Cl)c(Cl)c2)cc(OC)c1OC (stereo partly shown) [Example 7d] |  |  |  |  |
|  |  | Cc1cc(C(=O)N(C)CC(CCN(C)CCc2c[nH]c3ccccc23)c2ccc(Cl)c(Cl)c2)cc(Cl)n1 (stereo not shown) [Example 12c] | 39 nM | 93% | 103 nM | 82% |
| 217 nM | 19 nM | COc1cc(C(=O)N(C)CC(CCN(C)CCCc2c[nH]c3ccccc23)c2ccc(Cl)c(Cl)c2)cc(OC)c1OC (stereo not shown) [Example 7b] |  |  |  |  |
